Data published in patent publication US9561228B2 (Celgene Avilomics Research, Inc., priority 2013, dated 2017).

How the values were obtained:
Erk1 = target: T1, Erk1 (Homo sapiens, UniProt P27361); experiment: Protein Mass Modification Assay (intact protein MALDI, 60 min, 10-fold excess of compound); format: binding
T1 construct: purchased Millipore 14-439
How it was run: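 Human Erk1 was incubated 60 min at room temperature with a 10-fold molar excess of compound, then analysed as intact protein by MALDI with sinapinic acid matrix. The centroid mass shift versus untreated protein was divided by compound molecular weight to give percent modified protein.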

[1] = system: ERK1/2 phosphorylation of p90RSK in HT29 cells; experiment: pRSK MSD Assay in HT29 cells; format: cell-based; settings: Homo sapiens, HT-29, read-out: ERK1/ERK2 PRSK MSD HT29 EC50
How it was run: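 Serum-starved HT29 cells (0.1% FBS overnight) treated with test compound for 120 min at 37° C, then lysed with protease and phosphatase inhibitors. Phospho-p90RSK quantified by MSD sandwich immunoassay: RSK capture antibody, phospho-RSK detection antibody plus Sulfo-tagged antibody, electrochemiluminescence read.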

[2] = system: ERK1/2 phosphorylation of p90RSK in HCT116 cells; experiment: Detection of total and phospho-RSK by MSD ELISA (HCT116); format: cell-based; settings: Homo sapiens, HCT-116, read-out: ERK1/ERK2 PRSK HCT116 EC50
How it was run: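 HCT116 cells treated with compound in RPMI/10% FBS for 2 h at 37° C, then lysed. Phospho-RSK (Ser380) and total RSK in lysates measured by MSD sandwich electrochemiluminescence ELISA as a readout of ERK1/2 activity.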

T1 sequence (P27361 whole entry): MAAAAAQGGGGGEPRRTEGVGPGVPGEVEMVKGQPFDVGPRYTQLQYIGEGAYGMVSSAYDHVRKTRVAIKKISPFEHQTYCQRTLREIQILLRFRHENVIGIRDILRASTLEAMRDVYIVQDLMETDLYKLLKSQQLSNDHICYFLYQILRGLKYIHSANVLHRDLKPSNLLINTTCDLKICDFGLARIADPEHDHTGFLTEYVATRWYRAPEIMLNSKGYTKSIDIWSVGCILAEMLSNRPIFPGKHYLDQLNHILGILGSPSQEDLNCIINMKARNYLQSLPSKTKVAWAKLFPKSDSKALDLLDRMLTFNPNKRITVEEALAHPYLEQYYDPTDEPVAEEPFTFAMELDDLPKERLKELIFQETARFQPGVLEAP

SMILES | ERK1 Mass Mod (%) (Erk1) | EC50 [1] [nM] | EC50 [2] [nM]
C=CC(=O)Nc1cc(OCC(N)=O)ccc1Nc1nc(NC2CCOCC2)ncc1C(F)(F)F [Compound I-387, N-(5-(2-amino-2-oxoethoxy)-2-((2-((tetrahydro-2H-pyran-4-yl)amino)-5-(trifluoromethyl)pyrimidin-4-yl)amino)phenyl)acrylamide] | E (a mass modification of ≧70%) | 101 to 500 | 101 to 500
C=CC(=O)Nc1cc(C)ccc1Nc1nc(Nc2ccc3ocnc3c2)ncc1C(F)(F)F [Compound I-375, N-(2-((2-(benzo[d]oxazol-5-ylamino)-5-(trifluoromethyl)pyrimidin-4-yl)amino)-5-methylphenyl)acrylamide] | E (a mass modification of ≧70%) | > 1000 | > 1000
C=CC(=O)Nc1cc(C)ccc1Nc1nc(Nc2cc(OC)nc(N3CCN(C(C)=O)CC3)c2)ncc1C(F)(F)F [Compound I-93, N-(2-((2-((2-(4-Acetylpiperazin-1-yl)-6-methoxypyridin-4-yl)amino)-5-(trifluoromethyl)pyrimidin-4-yl)amino)-5-methylphenyl)acrylamide] | E (key: E: a mass modification of ≧70%; F: a mass modification of 31-69%; G: a mass modification ≦30%) | < 100 | < 100
C=CC(=O)Nc1cc(CN2CCN(C(=O)c3cnccn3)CC2)ccc1Nc1nc(Nc2cc(OC)ncc2C)ncc1C(F)(F)F [Compound I-390, N-(2-((2-((2-methoxy-5-methylpyridin-4-yl)amino)-5-(trifluoromethyl)pyrimidin-4-yl)amino)-5-((4-(pyrazine-2-carbonyl)piperazin-1-yl)methyl)phenyl)acrylamide] | E (a mass modification of ≧70%) | < 100 | < 100
C=CC(=O)Nc1cc(C)ccc1Nc1nc(Nc2nc(OC)ncc2C#N)ncc1C(F)(F)F [Compound I-346, N-(2-((2-((5-cyano-2-methoxypyrimidin-4-yl)amino)-5-(trifluoromethyl)pyrimidin-4-yl)amino)-5-methylphenyl)acrylamide] | E (a mass modification of ≧70%) | 101 to 500 | 101 to 500
C=CC(=O)Nc1cc(CN2CCN(C(=O)CO)CC2)ccc1Nc1nc(Nc2nc(OC)ncc2C)ncc1C(F)(F)F [Compound I-386, N-(5-((4-(2-hydroxyacetyl)piperazin-1-yl)methyl)-2-((2-((2-methoxy-5-methylpyrimidin-4-yl)amino)-5-(trifluoromethyl)pyrimidin-4-yl)amino)phenyl)acrylamide] | E (a mass modification of ≧70%) | 501 to 999 | 501 to 999
C=CC(=O)Nc1cc(C)ccc1Nc1nc(Nc2ccnc3ccccc23)ncc1C(F)(F)F [Compound I-379, N-(5-methyl-2-((2-(quinolin-4-ylamino)-5-(trifluoromethyl)pyrimidin-4-yl)amino)phenyl)acrylamide] | E (a mass modification of ≧70%) | < 100 | 501 to 999
C=CC(=O)Nc1cc(C)ccc1Nc1nc(Nc2nc(OC)ncc2OC)ncc1C(F)(F)F [Compound I-349, N-(2-((2-((2,5-dimethoxypyrimidin-4-yl)amino)-5-(trifluoromethyl)pyrimidin-4-yl)amino)-5-methylphenyl)acrylamide] | E (a mass modification of ≧70%) | 101 to 500 | 101 to 500
C=CC(=O)Nc1cc(C)c(C#N)cc1Nc1nc(NC2CCOCC2)ncc1C(F)(F)F [Compound I-397, N-(4-cyano-5-methyl-2-((2-((tetrahydro-2H-pyran-4-yl)amino)-5-(trifluoromethyl)pyrimidin-4-yl)amino)phenyl)acrylamide] | F (a mass modification of 31-69%) | 501 to 999 | > 1000
C=CC(=O)Nc1cc(C)c(F)cc1Nc1nc(Nc2nc(OC)ncc2Cl)ncc1C(F)(F)F [Compound I-374, N-(2-((2-((5-chloro-2-methoxypyrimidin-4-yl)amino)-5-(trifluoromethyl)pyrimidin-4-yl)amino)-4-fluoro-5-methylphenyl)acrylamide] | E (a mass modification of ≧70%) | < 100 | < 100
C=CC(=O)Nc1cc(C)ccc1Nc1nc(Nc2nc(OC)ncc2F)ncc1C(F)(F)F [Compound I-357, N-(2-((2-((5-fluoro-2-methoxypyrimidin-4-yl)amino)-5-(trifluoromethyl)pyrimidin-4-yl)amino)-5-methylphenyl)acrylamide] | E (a mass modification of ≧70%) | 101 to 500 | 101 to 500
C=CC(=O)Nc1cc(C)ccc1Nc1nc(Nc2ncc(C(F)(F)F)c(OC)n2)ncc1C(F)(F)F [Compound I-354, N-(2-((2-((4-methoxy-5-(trifluoromethyl)pyrimidin-2-yl)amino)-5-(trifluoromethyl)pyrimidin-4-yl)amino)-5-methylphenyl)acrylamide] | E (a mass modification of ≧70%) | 101 to 500 | 101 to 500
C=CC(=O)Nc1ccccc1Nc1nc(Nc2cc(OC)ncc2C)ncc1C(F)(F)F [Compound I-85, N-(2-((2-((2-Methoxy-5-methylpyridin-4-yl)amino)-5-(trifluoromethyl)pyrimidin-4-yl)amino)phenyl)acrylamide] | E (a mass modification of ≧70%) | < 100 | < 100
C=CC(=O)Nc1cc(CN2CCN(C(C)=O)CC2)ccc1Nc1nc(Nc2nc(OC)ncc2C)ncc1C(F)(F)F [Compound I-382, N-(5-((4-acetylpiperazin-1-yl)methyl)-2-((2-((2-methoxy-5-methylpyrimidin-4-yl)amino)-5-(trifluoromethyl)pyrimidin-4-yl)amino)phenyl)acrylamide] | E (a mass modification of ≧70%) | 101 to 500 | 501 to 999
C=CC(=O)Nc1cc(CN2CCN(C(=O)CO)CC2)ccc1Nc1nc(Nc2cc(OC)ncc2C)ncc1C(F)(F)F [Compound I-385, N-(5-((4-(2-hydroxyacetyl)piperazin-1-yl)methyl)-2-((2-((2-methoxy-5-methylpyridin-4-yl)amino)-5-(trifluoromethyl)pyrimidin-4-yl)amino)phenyl)acrylamide] | E (a mass modification of ≧70%) | < 100 | < 100
